The values below are quoted from earlier work in article PMC3816732, “Database-Guided Discovery of Potent Peptides to Combat HIV-1 or Superbugs” (Pharmaceuticals, 2013).

Entries after “also recorded” stand apart in the source; their conditions may differ. Where two headings read alike, the source gives them in different places. Bridges are numbered along the chain shown (N, C = ends). Where no end group is shown, it is not given here.

The subject of data set [1] is Pseudomonas aeruginosa. The settings on record: database-screened peptides. From the text:
[The procedure below names another organism; the source lists this organism under the same test.] (§1) The spread of MRSA from the clinical setting to the communities is worrisome. In fact, the annual frequency of deaths from MRSA is rapidly increasing and has surpassed those caused by HIV/AIDS. Therefore, there is a need to develop new treatments to control MRSA. To identify new compounds against MRSA USA300 LAC, we also assayed the antibacterial activity of the same 30 peptides used for screening anti-HIV-1 peptides above. […] We referred to this unique method as ab initio design to distinguish it from the de novo methods above. Our design comprises two major modules. The first module consists of an activity filter that allows us to obtain a list of peptides with desired activity (e.g., antibacterial, antifungal, antiviral, antiparasitic, or anticancer). To obtain compounds to kill S. aureus, we retrieved all AMPs with activity against Gram-positive bacteria as model peptides. The second module is composed of a series of parameter filters ...

Data set [2] has as its system Bacillus subtilis. The following applies: database-screened peptides.
Description: [The procedure below names another organism; the source lists this organism under the same test.] as §1

For data set [3], the system named is Staphylococcus aureus USA300 LAC. Also noted: method as in 2 sources, ref 52, 53 = [52]; PMID 20086159; doi:10.1128/AAC.01448-09; 52. Wang G. Watson K.M. Peterkofsky A. Buckheit R.W. Jr. Identification of novel human immunodeficiency virus type 1 inhibitory peptides based on the antimicrobial peptide database Antimicrob. Agents || [53]; PMID 22445495; doi:10.1016/j.ijantimicag.2012.02.003; 53. Menousek J. Mishra B. Hanke M.L. Heim C.E. Kielian T. Wang G. Database screening and in vivo efficacy of antimicrobial peptides against methicillin-resistant Staphylococcus aureus USA300 Int. J. A ||| ref 55 = [55]; PMID 22803960; doi:10.1021/ja305644e; 55. Mishra B. Wang G. Ab initio design of potent anti-MRSA peptides based on database filtering technology J. Am. Chem. Soc. 2012 134 12426 12429 10.1021/ja305644e 22803960 PMC3412535. The settings on record: for S. aureus USA300 (MIC, μM): S. aureus USA300 LAC (MRSA), database screening; for activity against S. aureus USA300 (MRSA), in words: database-screened peptides. From the text:
In fact, the annual frequency of deaths from MRSA is rapidly increasing and has surpassed those caused by HIV/AIDS. Therefore, there is a need to develop new treatments to control MRSA. To identify new compounds against MRSA USA300 LAC, we also assayed the antibacterial activity of the same 30 peptides used for screening anti-HIV-1 peptides above. […] For example, proline-rich AMPs are known to interact with bacterial heat shock proteins.

In data set [4] the test system is Escherichia coli. The following applies: database-screened peptides.
Description: as §1, with “... || As a second example, we also aimed to identify the minimal active region in a longer peptide. Human cathelicidin LL-37 is a 37-residue peptide starting with a pair of leucines. Our studies produced a library of model peptides with distinct antimicrobial activity. KR-12 is identified as the minimal antibacterial peptide corresponding to residues 18–29 of human LL-37. It is active against E. coli but not HIV-1 [56, 71]. However, FK-13, a core antimicrobial peptide with one more phenylalanine at the N-terminus than KR-12 [72], is active against both HIV-1 and E. coli.” for “...”

Data set [5] deals with HIV-1. From the text:
For example, proline-rich AMPs are known to interact with bacterial heat shock proteins.

Data set [6] relates to E. coli K12. More on the design: method as in 5 sources, ref [9] = [9]; PMID 18957441; doi:10.1093/nar/gkn823; 9. Wang G. Li X. Wang Z. The updated antimicrobial peptide database and its application in peptide design Nucleic Acids Res. 2009 37 D933 D937 10.1093/nar/gkn823 18957441 PMC2686604 ||| ref [52] = [52]; PMID 20086159; doi:10.1128/AAC.01448-09; 52. Wang G. Watson K.M. Peterkofsky A. Buckheit R.W. Jr. Identification of novel human immunodeficiency virus type 1 inhibitory peptides based on the antimicrobial peptide database Antimicrob. Agents ||| ref [54] = [54]; doi:10.4172/2155-6113.S2-003; 54. Wang G. Buckheit K.W. Mishra B. Lushnikova T. Buckheit R.W. Jr. De Novo Design of Antiviral and Antibacterial Peptides with Varying Loop structures J. AIDS Clin. Res. 2011 S2:003 10.4172/2155-6113 ||| ref 9, 52, 54 = [9]; PMID 18957441; doi:10.1093/nar/gkn823; 9. Wang G. Li X. Wang Z. The updated antimicrobial peptide database and its application in peptide design Nucleic Acids Res. 2009 37 D933 D937 10.1093/nar/gkn823 18957441 PMC2686604 || [52]; PMID 20086159; doi:10.1128/AAC.01448-09; 52. Wang G. Watson K.M. Peterkofsky A. Buckheit R.W. Jr. Identification of novel human immunodeficiency virus type 1 inhibitory peptides based on the antimicrobial peptide database Antimicrob. Agents || [54]; doi:10.4172/2155-6113.S2-003; 54. Wang G. Buckheit K.W. Mishra B. Lushnikova T. Buckheit R.W. Jr. De Novo Design of Antiviral and Antibacterial Peptides with Varying Loop structures J. AIDS Clin. Res. 2011 S2:003 10.4172/2155-6113 ||| ref 9, 54 = [9]; PMID 18957441; doi:10.1093/nar/gkn823; 9. Wang G. Li X. Wang Z. The updated antimicrobial peptide database and its application in peptide design Nucleic Acids Res. 2009 37 D933 D937 10.1093/nar/gkn823 18957441 PMC2686604 || [54]; doi:10.4172/2155-6113.S2-003; 54. Wang G. Buckheit K.W. Mishra B. Lushnikova T. Buckheit R.W. Jr. De Novo Design of Antiviral and Antibacterial Peptides with Varying Loop structures J. AIDS Clin. Res. 2011 S2:003 10.4172/2155-6113. The following applies: for MIC: peptide potency against E. coli K12. From the text:
Our initial attempt was a stepwise design based on the bioinformatics results from our database.

Data set [7] concerns chymotrypsin.
Data set [8] has as its system herpes simplex virus type-2 (HSV-2). Also noted: method as in doi:10.4172/2155-6113.S2-003. From the text:
These GLRC peptides (Table 3) are made of only amino acids G, L, R, and C. […] O ...

The subject of data set [9] is Staphylococcal biofilm. The following applies: catheter embedded in mice.
Where [10] appears, read: peptide potency against HIV-1, database-guided designed peptides.

For Maculatin 1.3, in data set [1], the “activity against P. aeruginosa, in words” value is recorded as “not”. In addition, in [2], the “activity against B. subtilis, in words” value is reported as “active”. In data set [3], the “S. aureus USA300 (MIC, μM)” value was 6.2 µM and the “activity against S. aureus USA300 (MRSA), in words” value (“activity against S. aureus USA300” below) is on record as “active”. The “activity against E. coli, in words” value in data set [4] is on record as “not”.
GLRRLLGRLLRRLGRLLLR [GLR-19]: in [5] (GLK/GLR/GLRC designed peptides), the “activity against HIV-1, in words” value was “HIV-1 inhibitory”. Also, the EC50 in [5] (setting [10]) was 4400 nM. Moreover, in data set [6] (GLK/GLR designed peptides), the “activity against E. coli, in words” value is recorded as “lost activity”. In addition, the “MIC” value in data set [6] is more than 120 µM. For the same substance, the “Stability (% left)” value in data set [7] is on record as 14.5 % left.
As for Ponericin L2 [reference compound], the concentration giving a half-maximal response (EC50) in [5] (read-out: HIV-1 (EC50), database screening of 30 APD peptides) is 1400 nM.
On to “Lycotoxin I: spider antimicrobial peptide (IWLTALKFLGKHAAKHLAKQQLSKL; UniProt P61507 1-25, looked up)”, for which the “activity against P. aeruginosa, in words” value in data set [1] was “active”. Also, the “activity against B. subtilis, in words” value in [2] is “active”. Besides, in data set [3], the “S. aureus USA300 (MIC, μM)” value is 3.1 µM and the “activity against S. aureus USA300” value is recorded as “active”. Besides, the “activity against E. coli, in words” value in data set [4] is “active”.
With Ascaphin-8, in [1], the “activity against P. aeruginosa, in words” value was “active”. For the same substance, the “activity against B. subtilis, in words” value in [2] is “active”. In [3], the “S. aureus USA300 (MIC, μM)” value is 3.1 µM and the “activity against S. aureus USA300” value is reported as “effective”. In addition, in data set [3] (listed as Aascaphin-8), the “activity against S. aureus USA300” value is “active”. In addition, in data set [5], the “activity against HIV-1, in words” value is recorded as “effective”. Besides, in data set [5] (read-out: HIV-1 (EC50)), the EC50 is 1200 nM. In data set [4], the “activity against E. coli, in words” value was “active”.
Turning to “GLRCRLGRLLRRLGRCLLR (disulfide 4-16 (inferred)) [GLRC-2]”, the “activity against HIV-1, in words” value in [5] (GLK/GLR/GLRC designed peptides) was “most effective”. Moreover, in data set [5] (setting [10]), the EC50 was 790 nM. Also, the “MIC” value in [6] was 30 µM. In [8], the “inhibitory effect on HSV-2” value is given as “inhibitory effect”. Also, in [7], the “Stability (% left)” value is given as 63.3 % left and the “stability to the action of chymotrypsin, in words” value is reported as “most stable”.
For FFGKVLKLIRKIF-NH2 [DASamP1], the “activity against P. aeruginosa, in words” value in data set [1] was “not”. Further, in data set [2], the “activity against B. subtilis, in words” value was “not”. Moreover, in data set [3], the “S. aureus USA300 (MIC, μM)” value was 3.1 µM and the “activity against S. aureus USA300” value is given as “active; also recorded: effective”. In data set [5], the “activity against HIV-1, in words” value is listed as “effective”. Moreover, in [5] (read-out: HIV-1 (EC50)), the EC50 was 630 nM. The “activity against E. coli, in words” value in [4] was “not”. In addition, the “prevention of Staphylococcal biofilm formation” value in data set [9] is “able to prevent Staphylococcal biofilm formation”.
Take drosocin [reference compound]: the “activity against HIV-1, in words” value in [5] is on record as “did not show any activity”.
For the substance Piscidin 1, in [1], the “activity against P. aeruginosa, in words” value was “active”. For the same substance, the “activity against B. subtilis, in words” value in [2] is “active”. In addition, the “S. aureus USA300 (MIC, μM)” value in data set [3] is 3.1 µM. Moreover, the “activity against S. aureus USA300” value was “effective” in data set [3] and “active” in [3] (listed as piscidin 1). Further, the “activity against E. coli, in words” value in [4] is recorded as “active”.
In the case of “IKWKKLLRAAKRIL-NH2 [DASamP2, derivative of polybia-MPI, […]-amide]”, in [1], the “activity against P. aeruginosa, in words” value is reported as “active”. For the same substance, the “activity against B. subtilis, in words” value in data set [2] is “active”. In data set [3], the “S. aureus USA300 (MIC, μM)” value is 6.2 µM and the “activity against S. aureus USA300” value is on record as “active”. In addition, in [4], the “activity against E. coli, in words” value was “active”.
Consider “GCRRLLGRLLRRLGRLLCR (disulfide 2-18 (inferred)) [GLRC-1]”, for which the half-maximal effective concentration (EC50) in data set [5] (setting [10]) was more than 43800 nM. Further, in [6], the “MIC” value was 30 µM. For the same substance, the “Stability (% left)” value in [7] is 20.8 % left.
Regarding “GLKKLLGKLLKKLGKLLLK [GLK-19, 19-residue peptide containing only G, L, and K]”, the “activity against HIV-1, in words” value in [5] (GLK/GLR/GLRC designed peptides) is listed as “not”. In [5] (setting [10]), the half-maximal effective concentration (EC50) was more than 47500 nM. Also, the “MIC” value in data set [6] is 10 µM.
On to “GLRRLCGRLGRRLCRLLLR (disulfide 6-14 (inferred)) [GLRC-3]”, for which, in data set [5] (setting [10]), the 50% effective concentration (EC50) was 2800 nM. Besides, the “MIC” value in data set [6] was 7.5 µM. In data set [7], the “Stability (% left)” value is on record as 1.4 % left.
“GCRRLCGRLGRRLCRLLCR (also: bicyclic or more (positions not given here)) [GLRC-4]”: the 50% effective concentration (EC50) in [5] (setting [10]) is 30700 nM. Moreover, in data set [6], the “MIC” value is 60 µM. In addition, the “Stability (% left)” value in data set [7] (stability to the action of chymotrypsin) is reported as 9.7 % left.
